Reference: patent publication US9725442B2, “Heterocyclic derivative having PGD2 receptor antagonist activity” (Shionogi & Co., Ltd., priority 2011, dated 2017)
Read-outs that look alike come from different tables or passages of the source.

Columns and labels:
[1] = biological target: CRTH2 (Homo sapiens (Human), UniProt Q9Y5Y4); test: CRTH2 receptor binding inhibitory activity ([3H]-PGD2 displacement, membranes of CRTH2-expressing K562 cell)
Description: Cell membrane was prepared from CRTH2-expressing K562 cell. The cell membrane (20 μg/well) was mixed with reaction buffer (50 mM Tris/HCl, pH 7.4, 10 mM MgCl2). Then, [^3H]-PGD2 was added to the mixture and incubated for 60 min at room temperature. […] Then, the mixture was filtrated with glass paper immediately. The filter paper was washed several times and radio activity on the filter was measured. Specific binding was defined as difference between total and non-specific binding (radio activity with 10 μM PGD2). Ki values for each compound were calculated from displacement curve.

[2] = biological target: Human DP1 receptor (Homo sapiens (Human), UniProt Q13258); test: Human DP1 inhibitory activity in DP1-expressing cell (PGD2-induced cAMP); format: cell-based
Sequence of Human DP1 receptor (Q13258 whole entry): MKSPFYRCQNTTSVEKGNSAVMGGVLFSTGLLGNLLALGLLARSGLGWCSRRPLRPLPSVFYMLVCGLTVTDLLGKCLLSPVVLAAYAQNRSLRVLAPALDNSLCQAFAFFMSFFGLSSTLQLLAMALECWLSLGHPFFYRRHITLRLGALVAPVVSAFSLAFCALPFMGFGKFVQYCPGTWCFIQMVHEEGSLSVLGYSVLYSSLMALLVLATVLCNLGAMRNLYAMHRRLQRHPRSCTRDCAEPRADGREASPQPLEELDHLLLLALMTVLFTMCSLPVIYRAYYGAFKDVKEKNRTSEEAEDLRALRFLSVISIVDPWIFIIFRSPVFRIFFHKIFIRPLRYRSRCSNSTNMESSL
Description: Compounds were categorized as AA (cAMP is less than 100 nM) and A (cAMP is more than 100 nM and less than 5000 nM) as shown in Table 99 and 100.

[3] = CRTH2 receptor binding, [3H]-PGD2 displacement, membrane of CRTH2-expressing K562 cell, categorized AAAA/AAA, read-out: Ki
[4] = category of cAMP IC50, human DP1 receptor expressing Jurkut cell
[5] = [3H]-PGD2 displacement, membrane of CRTH2-expressing K562 cell, read-out: Ki

Sequence of CRTH2 (Q9Y5Y4 whole entry): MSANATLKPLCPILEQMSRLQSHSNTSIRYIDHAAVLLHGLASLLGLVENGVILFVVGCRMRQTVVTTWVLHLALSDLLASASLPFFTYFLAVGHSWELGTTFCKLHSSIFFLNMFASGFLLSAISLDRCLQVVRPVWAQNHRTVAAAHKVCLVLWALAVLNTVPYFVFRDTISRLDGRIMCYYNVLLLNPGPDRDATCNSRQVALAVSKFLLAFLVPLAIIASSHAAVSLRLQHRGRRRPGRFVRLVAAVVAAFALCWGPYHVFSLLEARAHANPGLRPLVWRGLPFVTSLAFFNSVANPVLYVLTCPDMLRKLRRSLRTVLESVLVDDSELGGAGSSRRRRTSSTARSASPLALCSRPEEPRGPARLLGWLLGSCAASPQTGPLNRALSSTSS

Row | SMILES | Ki [1, 3] [µM] | IC50 [2, 4] [µM] | Ki [1, 5] [µM] | IC50 ([2]; IC50 of PGD2 (60 nM)-induced cAMP increase, human DP1 receptor expressing Jurkut cell) [µM] | Ki [1] [µM]
1 | CCOc1ccc(S(=O)(=O)N2C[C@@H](C)[C@@H](n3nc(CC(=O)O)c4ccc(C)cc43)C2)cc1 [Compound I-109] | < 0.1 | < 0.1 |  |  | 
2 | CC(C)Oc1ccc(S(=O)(=O)N2C[C@@H](C)[C@@H](n3nc(CCC(=O)O)c4ccc(F)cc43)C2)cc1 [Compound I-101] | 0.1 to 5 | 0.1 to 5 |  |  | 
3 | CC(C)Oc1ccc(S(=O)(=O)N2C[C@H](n3nc(CC(=O)O)c4ccc(F)cc43)C[C@@H]2c2nc[nH]n2)cc1 [Compound I-55] | 0.1 to 5 | 0.1 to 5 |  |  | 
4 | Cc1ccc2c(CC(=O)O)nn([C@H]3CN(S(=O)(=O)c4ccc(OC(C)C)cc4)C[C@H]3C)c2c1 [Compound I-62] | < 0.1 | < 0.1 |  |  | 
5 | C[C@@H]1CN(S(=O)(=O)c2ccc(C(F)(F)F)cc2)C[C@@H]1n1nc(CC(=O)O)c2ccc(F)cc21 [Compound I-119] | < 0.1 | 0.1 to 5 |  |  | 
6 | C[C@@H]1CN(S(=O)(=O)c2ccc(C3CC3)cc2Cl)C[C@@H]1n1nc(CC(=O)O)c2ccc(F)cc21 [Compound I-53] | < 0.1 | < 0.1 |  |  | 
7 | COc1ccc(S(=O)(=O)N2C[C@@H](C)[C@@H](n3nc(CC(=O)O)c4ccc(F)cc43)C2)cn1 [Compound I-116] | < 0.1 | 0.1 to 5 |  |  | 
8 | CCOc1ccc(S(=O)(=O)N2C[C@@H](C)[C@@H](n3nc(CC(=O)O)c4cc(Cl)ccc43)C2)cc1 [Compound I-161] | 0.1 to 5 | < 0.1 |  |  | 
9 | CC1Cc2cc(S(=O)(=O)N3C[C@@H](C)[C@@H](n4nc(CC(=O)O)c5ccccc54)C3)ccc2O1 (stereo partly drawn) [Compound I-153] | < 0.1 | < 0.1 | 0.065 |  | 
10 | O=C(O)Cc1nn([C@H]2C[C@H]3CC[C@@H](C2)N3S(=O)(=O)c2ccc(F)cc2)c2cc(F)ccc12 [Compound I-82] |  | 0.1 to 5 |  |  | 0.1 to 5
11 | C[C@@H]1CN(S(=O)(=O)c2ccc(OC(F)F)cc2)C[C@@H]1n1nc(CC(=O)O)c2ccc(Cl)cc21 [Compound I-134] | < 0.1 | < 0.1 |  |  | 
12 | CC(C)Oc1ccc(S(=O)(=O)N2C[C@H](n3nc(CC(=O)O)c4ccc(F)cc43)C[C@@H]2CO)cc1 [Compound I-11] | 0.1 to 5 | < 0.1 |  | 0.099 | 
13 | COC[C@@H]1C[C@@H](n2nc(CC(=O)O)c3ccc(F)cc32)CN1S(=O)(=O)c1ccc(OC(C)C)cc1 [Compound I-16] | < 0.1 | 0.1 to 5 |  |  | 
14 | CC(C)Oc1ccc(S(=O)(=O)N2C[C@H](n3nc(CC(=O)O)c4cccc(F)c43)C[C@@H]2C)cc1 [Compound I-60] | 0.1 to 5 | < 0.1 |  |  | 
15 | C[C@@H]1CN(S(=O)(=O)c2ccc(C3CC3)cc2)C[C@@H]1n1nc(CC(=O)O)c2ccc(F)cc21 [Compound I-113] | < 0.1 | < 0.1 | 0.017 |  | 
16 | CC(C)Oc1ccc(S(=O)(=O)N2C[C@@H](C)[C@@H](n3nc(CC(=O)O)c4ccc(F)cc43)C2)cc1 [Compound I-29] | < 0.1 | < 0.1 |  |  | 

Row | SMILES | Ki [1, 3] [µM] | IC50 [2, 4] [µM] | Ki [1, 5] [µM] | IC50 ([2]; IC50 of PGD2 (60 nM)-induced cAMP increase, human DP1 receptor expressing Jurkut cell) [µM] | Ki [1] [µM]
17 | CC(C)Oc1ccc(S(=O)(=O)N2C[C@H](n3nc(CC(=O)O)c4ccc(F)cc43)C[C@H]2CC#N)cc1 [Compound I-14] | < 0.1 | 0.1 to 5 |  |  | 
18 | C[C@@H]1C[C@@H](n2nc(CC(=O)O)c3ccc(F)cc32)CCN1S(=O)(=O)c1ccc(F)cc1 [Compound I-79] | 0.1 to 5 | 0.1 to 5 |  |  | 
19 | O=C(O)Cc1nn([C@@H]2C[C@H]3CC[C@@H](C2)N3S(=O)(=O)c2ccc(F)cc2)c2cc(F)ccc12 [Compound I-80] |  | 0.1 to 5 |  |  | 0.1 to 5
20 | CC(C)Oc1ccc(S(=O)(=O)N2C[C@@H](C)[C@@H](n3nc(CC(=O)O)c4ccccc43)C2)cc1 [Compound I-35] | < 0.1 | < 0.1 |  |  | 
21 | CC(C)Oc1ccc(S(=O)(=O)N2C[C@@H](C)[C@@H](n3nc(CC(=O)NS(C)(=O)=O)c4ccc(F)cc43)C2)cc1 [Compound I-138] | < 0.1 | 0.1 to 5 | 0.065 |  | 
22 | C=CC[C@@H]1CN(S(=O)(=O)c2ccc(OC(C)C)cc2)C[C@@H]1n1nc(CC(=O)O)c2ccc(F)cc21 [Compound I-32] | < 0.1 | < 0.1 |  |  | 
23 | CCc1ccc(S(=O)(=O)N2C[C@@H](C)[C@@H](n3nc(CC(=O)O)c4ccc(F)cc43)C2)cc1 [Compound I-118] | < 0.1 | < 0.1 |  |  | 
24 | CC(C)Oc1ccc(S(=O)(=O)N2C[C@H](n3nc(CC(=O)O)c4ccc(F)cc43)C[C@]2(C)C#N)cc1 [Compound I-104] | < 0.1 | < 0.1 | 0.016 |  | 
25 | CC(C)NC(=O)[C@@H]1C[C@@H](n2nc(CC(=O)O)c3ccc(F)cc32)CN1S(=O)(=O)c1ccc(OC(C)C)cc1 [Compound I-6] | 0.1 to 5 | 0.1 to 5 |  |  | 
26 | CCC[C@@H]1CN(S(=O)(=O)c2ccc(OC(C)C)cc2)C[C@@H]1n1nc(CC(=O)O)c2ccc(F)cc21 [Compound I-34] | < 0.1 | < 0.1 | 0.077 |  | 
27 | CC(C)Oc1ccc(S(=O)(=O)N2CC[C@H](n3nc(CC(=O)O)c4ccc(F)cc43)C[C@H]2C)cc1 [Compound I-78] | 0.1 to 5 | 0.1 to 5 |  |  | 
28 | CCOc1ccc(S(=O)(=O)N2C[C@@H](C)[C@@H](n3nc(CC(=O)O)c4cc(C#N)ccc43)C2)cc1 [Compound I-160] | 0.1 to 5 | < 0.1 |  |  | 
29 | C[C@@H]1CN(S(=O)(=O)c2cccc(Cl)c2)C[C@@H]1n1nc(CC(=O)O)c2ccc(F)cc21 [Compound I-122] | < 0.1 | 0.1 to 5 | 0.0025 |  | 
30 | CC[C@@H]1CN(S(=O)(=O)c2ccc(OC(C)C)cc2)C[C@@H]1n1nc(CC(=O)O)c2ccc(F)cc21 [Compound I-39] | < 0.1 | < 0.1 |  |  | 
31 | COc1ccc(S(=O)(=O)N2C[C@@H](C)[C@@H](n3nc(CC(=O)O)c4ccc(C(F)(F)F)cc43)C2)cc1 [Compound I-128] | < 0.1 | < 0.1 |  |  | 

More lines, main results first:

Row | Ki [1, 3] [µM] | IC50 [2, 4] [µM] | Ki [1, 5] [µM] | IC50 ([2]; IC50 of PGD2 (60 nM)-induced cAMP increase, human DP1 receptor expressing Jurkut cell) [µM] | SMILES | Ki [1] [µM]
32 | 0.1 to 5 | 0.1 to 5 |  |  | CCOc1ccc(S(=O)(=O)N2C[C@@H](C)[C@@H](n3nc(Cc4cc(O)no4)c4ccccc43)C2)cc1 [Compound I-341] | 
33 | 0.1 to 5 | 0.1 to 5 |  |  | CCOc1ccc(S(=O)(=O)N2C[C@H](n3nc(CC(=O)O)c4ccccc43)[C@H](C)[C@H]2C#N)cn1 [Compound I-293] | 
34 | < 0.1 | 0.1 to 5 |  |  | CCOc1ccc(S(=O)(=O)N2C[C@@H](C)[C@@H](n3nc(CC(=O)O)c4ccccc43)C2)c(/C=C/c2ccccc2)c1 [Compound I-185] | 
35 | < 0.1 | 0.1 to 5 |  |  | CCOCCOc1ccc(S(=O)(=O)N2C[C@@H](C)[C@@H](n3nc(CC(=O)O)c4ccccc43)C2)cc1 [Compound I-191] | 
36 | 0.1 to 5 | < 0.1 |  |  | CCOc1ccc(S(=O)(=O)N2C[C@@H](C)[C@@H](n3nc(CC(=O)O)c4cc(Cl)ccc43)C2)cn1 [Compound I-162] | 
37 | 0.1 to 5 | 0.1 to 5 |  |  | C[C@@H]1CN(S(=O)(=O)c2ccc(Oc3ccccc3)nc2)C[C@@H]1n1nc(CC(=O)O)c2ccccc21 [Compound I-213] | 
38 | 0.1 to 5 | 0.1 to 5 |  |  | CCOc1ccc(S(=O)(=O)N2C[C@@H](C)[C@@H](n3nc(CC(=O)O)c4ccccc43)C2)c(OC)c1 [Compound I-261] | 
39 | < 0.1 | < 0.1 |  |  | CCOc1ncc(S(=O)(=O)N2C[C@@H](C)[C@@H](n3nc(CC(=O)O)c4ccc(C)cc43)C2)s1 [Compound I-170] | 
40 | 0.1 to 5 | 0.1 to 5 |  |  | CCOc1ccc(S(=O)(=O)N2C[C@@H](C)[C@@H](n3cc(CC(=O)O)c4ccc(-c5cnn(C)c5)cc43)C2)cc1 [Compound I-328] | 
41 | < 0.1 | < 0.1 |  |  | CCOc1ccc(S(=O)(=O)N2C[C@@H](C)[C@@H](n3nc(CC(=O)O)c4ccccc43)C2)c([N+](=O)[O-])c1 [Compound I-324] | 
42 | 0.1 to 5 | < 0.1 |  |  | CCOc1ccc(S(=O)(=O)N2C[C@@H](C)[C@@H](n3nc(CC(=O)O)c4cc(C)ccc43)C2)cc1 [Compound I-202] | 
43 | < 0.1 | 0.1 to 5 |  |  | CCOc1ccc(S(=O)(=O)N2C[C@@H](C)[C@@H](n3nc(CC(=O)O)c4ccc(C5CCCCC5)cc43)C2)cn1 [Compound I-224] | 
44 | 0.1 to 5 | 0.1 to 5 |  |  | CCCOC[C@H]1C[C@@H](n2nc(CC(=O)O)c3ccc(F)cc32)CN1S(=O)(=O)c1ccc(OC(C)C)cc1 [Compound I-327] | 
45 | 0.1 to 5 | 0.1 to 5 |  |  | COCCOCCOc1ccc(S(=O)(=O)N2C[C@@H](C)[C@@H](n3nc(CC(=O)O)c4ccccc43)C2)cc1 [Compound I-253] | 
46 | < 0.1 | < 0.1 |  |  | CCOc1ccc(S(=O)(=O)N2C[C@@H](C)[C@@H](n3c(C)c(CC(=O)O)c4ccccc43)C2)cn1 [Compound I-330] | 
47 | 0.1 to 5 | < 0.1 |  |  | CCc1ccc(S(=O)(=O)N2C[C@@H](C)[C@@H](n3nc(CC(=O)O)c4ccccc43)C2)cc1 [Compound I-243] | 
48 | 0.1 to 5 | 0.1 to 5 |  |  | CCOc1ccc(S(=O)(=O)N2C[C@@H](C)[C@@H](n3nc(CC(=O)O)c4ccccc43)C2)cc1[N+](=O)[O-] [Compound I-188] | 
49 | 0.1 to 5 | 0.1 to 5 |  |  | CCOc1ccc(S(=O)(=O)N2C[C@H](n3nc(CC(=O)O)c4ccccc43)C[C@@H]2C(N)=O)cc1 [Compound I-319] | 
50 | < 0.1 | 0.1 to 5 | 0.01 |  | CCOc1ccc(S(=O)(=O)N2C[C@@H](C)[C@@H](n3cc(CC(=O)O)c4ccc(-c5ncco5)cc43)C2)cc1 [Compound I-282] | 
